Assay results as given in patent US5324747A, “N-substituted anilines, inhibitors of phospholipases A2” (Hoffmann-La Roche Inc., priority 1992, dated 1994).

Columns and labels:
PLA2 Rat Paw Edema = experiment: Phospholipase A2 Rat Paw Edema; format: in vivo, Lewis rats; conditions: for inhibition in vivo at 30 mg/kg: Rattus norvegicus, 2 hr, read-out: % Inhib of PLA2 Rat Paw Edema 2 hr (30 mg/kg)
How it was run: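 Lewis rats (~200 g, n=7) dosed i.p. (in DMSO) or orally (in Labrafil M-1944CS) 1 h before subplantar injection of 5 ug Naja naja PLA2 into right hind paw. Paw volume by plethysmometry at 0.5, 2 and 4 hr minus baseline; % change versus vehicle, Student's t-test.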

[1] = test system: Naja naja snake venom PLA2 (SV-PLA2); experiment: Assay for inhibition of snake venom PLA2 (SV-PLA2) in vitro; format: biochemical; conditions: read-out: Inhib of SV-PLA2 IC50
Procedure: ASSAY FOR INHIBITION OF SNAKE VENOM PLA2 (SV-PLA2) IN VITRO
Several representative compounds of the invention were also tested as inhibitors of Naja naja snake venom PLA2 (SV-PLA2). The assay employed in this study was the spectrophotometric method described by: C. Vigo, G. P. Lewis and P. J. Piper in Biochemical Pharmacology, 29:623-627 (1983), which was modified as described by: A. F. Welton, L. D. Tobias, C. Fiedler-Nagy, W. Anderson, W. Hope, K. Meyers and J. W. Coffey in "Plant Flavonoids in Biology and Medicine: Biochemical, Pharmacological and Structure-Activity Relationships", p 231-242, (1986) Alan R. Liss, Inc. The PLA2 paw edema model, (data in Table I) is initiated by injection of SV-PLA2.

HSF-PLA2 = biological target: T1, HSF-PLA2 (Homo sapiens, UniProt P14555); experiment: Assay for Inhibition of HSF-PLA2 In Vitro; format: biochemical; conditions: for IC50: read-out: Inhib of HSF-PLA2 IC50; for inhibition at 1 µM: read-out: Inhib of HSF-PLA2, % inhibition
T1 construct: extracellular enzyme obtained from human synovial fluid (HSF-PLA2); from tissue; host or cells: pooled human synovial fluid, added at 0.1% (v/v)
T1 sequence (P14555 21-144): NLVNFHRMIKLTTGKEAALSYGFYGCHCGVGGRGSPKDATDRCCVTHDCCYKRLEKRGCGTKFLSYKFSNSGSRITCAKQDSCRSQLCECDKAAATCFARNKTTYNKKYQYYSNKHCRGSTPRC
How it was run: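 Extracellular PLA2 isolated from human synovial fluid, incubated 30 min at 37 °C with 14C-labelled phospholipid substrate in duplicate. Lipids were chloroform-extracted, and released 14C-oleic acid was separated from substrate by silica TLC; a no-enzyme control was run in each experiment.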

[2] = test system: adjuvant arthritis model in rats; experiment: Established Adjuvant Arthritis Test; format: in vivo
Procedure: Established Adjuvant Arthritis Test
Representative compounds of the invention were tested in the standard adjuvant arthritis model in rats, induced by Freunds complete adjuvant, as described by C. E. Brinckerhoff, J. W. Coffey and A. C. Sullivan, Science, 221, p. 756-758 (1983).

[3] = test system: Croton Oil Mouse Ear Edema; experiment: Croton Oil Mouse Ear Edema Test; format: in vivo, CD-1 mice; conditions: topical, coapplied, 6 hours
[4] = test system: Acetic Acid-Induced Colitis in Rats; experiment: Acetic Acid-Induced Colitis in Rats; format: in vivo, rats (Sprague-Dawley)
Description: Acetic Acid-Induced Colitis in Rats The rat acetic acid-induced colitis bioassay has been described by J. E. Krawisz, et al. in Amer. J. Proc. Gastro. Col. Rec. Surg. 31: 11-18 (1980), and by P. Sharon and W. F. Stenson in Gastroenterology 88: 55-63 (1985) and 86:453-460 (1984). Acetic acid-induced colitis is characterized by the movement of inflammatory cells into the colon, with the number of such cells in the mucosa being measured by the activity of myeloperoxidase, a marker enzyme for these cells. Positive desirable activity is indicated by a reduction in the high levels of myeloperoxidase caused by acetic acid. […] The animals were administered a second dose of the test compound in the same amount about 16 hours later. Then 24 hours after the acetic acid treatment, the animals were sacrificed. The colonic mucosa was surgically removed and homogenized in an aqueous buffer at pH 6 with a Tissumizer or similar device and myeloperoxidase was measured in the homogenate using o-phenylenediamine as a cromagen, as described by […] and A. Bartlett in "The Enzyme Linked Immunosorbent Assay (ELISA)", Zoological Soc., London, 1979, pages 29-30. Control animals were pretreated with the vehicle and saline in place of acetic acid.

[5] = test system: rat carrageenan-induced paw edema; experiment: Rat Carrageenan Paw Edema; format: in vivo, Lewis rats; conditions: 2 h; for inhibition in vivo at 30 mg/kg: 30 mg/kg ip
Procedure: Rat Carrageenan Paw Edema
Representative compounds of the invention were tested in rat carrageenan-induced paw edema to determine their ability to inhibit this acute inflammatory response. Test compounds are administered intraperitoneally or orally to groups of seven Lewis rats (≈200 gm) 1 hr prior to carrageenan administration. The test compounds are dissolved in dimethyl sulfoxide for intraperitoneal administration and dissolved or suspended in Labrafil […] for oral administration. At 0 hour, 0.1 mL of 1% carrageenan dissolved in pyrogen free saline is injected subplantarly into the right hind paw to elicit the inflammatory response. The volume (in mL) of the right hind paw is measured by immersion of the paw to the level of the lateral malleolus in an aqueous plethysmometer immediately prior to the injection of carrageenan and then at 1, 2 and 4 hr after carrageenan injection. The paw edema is calculated by substracting the zero time reading from the readings taken after injection. The percent change of the edema volume from the vehicle treated control is calculated to determine the activity of the test compound. Statistical analysis of the mean paw edema values of the control versus the treated groups are performed using Student's t-test.

mouse skin = conditions: cited from earlier work

SMILES | inhibition in vivo at 30 mg/kg (PLA2 Rat Paw Edema) [%] | IC50 [1] [nM] | IC50 (HSF-PLA2) [nM] | % Inhib of Croton Oil Mouse Ear Edema (1 mg) [3] [%] | Change in Paw Volume (mL) Treated ([2]; 10 mg/kg ip) [mL] | other results
CCCCCCCCCCOc1cc(OCCCCCCCCCC)cc(N(CC(=O)O)CC(=O)O)c1 [Example 6, N-(Carboxymethyl)-N-[3,5-bis(decyloxy)phenyl]glycine] | 45 | 17 | 240 | 13 |  | Change in Paw Volume (mL) Treated ([2]; 30 mg/kg ip): -0.04 ± 0.24 mL
CCCCCCCCOc1cc(OCCCCCCCC)cc(N(CC(=O)O)CC(=O)O)c1 [Example 6c, N-(carboxymethyl)-N-[3,5-bis(octyloxy)phenyl]glycine] | 7 | 22 | 400 | 0 |  | 
CCCCCCCCCCCCOc1cc(OCCCCCCCCCCCC)cc(N(CC(=O)O)CC(=O)O)c1 [Example 6d, N-(carboxymethyl)-N-[3,5-bis(dodecyloxy)phenyl]glycine] |  | 170 | 50 | 21 |  | 
CCCCCCCCCCCCCCOc1cc(OCCCCCCCCCCCCCC)cc(N(CC(=O)O)CC(=O)O)c1 [Example 6e, N-(carboxymethyl)-N-[3,5-bis(tetradecyloxy)phenyl]glycine] |  |  | 130 |  |  | % Inhib of PLA2 Rat Paw Edema 2 hr (PLA2 Rat Paw Edema; (50 mg/kg)): 44%; % Inhibition of Myeloperoxidase Accumulation at 10 mg/kg po [4]: 145 ± 72%
CCCCCCCCCCNC(=O)c1cc(C(=O)NCCCCCCCCCC)cc(N(CC(=O)O)CC(=O)O)c1 [Example 16, N-(Carboxymethyl)-N-[3,5-bis[(decylamino)carbonyl]phenyl]glycine] | 0 | 50 | 300 | 10 |  | % Inhibition of Myeloperoxidase Accumulation at 10 mg/kg po [4]: 212 ± 124%
CCCCCCCCCCCCCCCCCCOc1cccc(N(CC(=O)O)CC(=O)O)c1 [Example 36, N -(Carboxymethyl)-N-[3-(octadecyloxy)phenyl]glycine] |  |  | 170 | 21 |  | % Inhibition of Myeloperoxidase Accumulation at 10 mg/kg po [4]: 190 ± 76%
CCCCCCCCc1ccc(N(CC(=O)O)CC(=O)O)cc1 [Example 39c, N-(carboxymethyl)-N-(4-octylphenyl)glycine] |  | 66 | 1700 |  |  | 
CCCCCCCCCCCCCCCCCCOc1cc(OCCCOc2ccccc2)cc(N(CC(=O)O)CC(=O)O)c1 [Example 58, N-(Carboxymethyl)-N-[3-(octadecyloxy)-5-(3-phenoxypropoxy)phenyl]glycine] | 36 |  | 60 | 78 | 0.37 ± 0.14 | inhibition in vivo at 30 mg/kg [5]: 29%
CCCCCCCCCCCCCCCCCCOc1cc(OCCCOc2cccc([N+](=O)[O-])c2)cc(N(CC(=O)O)CC(=O)O)c1 [Example 58m, N-(carboxymethyl)-N-[3-[3-(3-nitrophenoxy)propoxy]-5-(octadecyloxy)phenyl]glycine] | 52 |  |  | 60 | 0.40 ± 0.13 | inhibition at 1 µM (HSF-PLA2): 79%; inhibition in vivo at 10 mg/kg ([5]; 10 mg/kg ip): 61%
CCCCCCCCCCCCCCCCCCOc1cc(OCCCOc2cccc(N)c2)cc(N(CC(=O)O)CC(=O)O)c1 [Example 58n, N-(carboxymethyl)-N-[3-[3-(3-aminophenoxy)propoxy]-5-(octadecyloxy)phenyl]glycine] | 4 |  | 130 | 64 | 0.23 ± 0.12 | inhibition in vivo at 30 mg/kg [5]: 65%
CCCCCCCCCCCCCCCCCCOc1cc(OCCCCC(=O)OC)cc(N(CC(=O)O)CC(=O)O)c1 [Example 64] | 61 |  | 60 | 87 | 0.65 ± 0.12 | inhibition in vivo at 30 mg/kg [5]: 69%
CCCCCCCCCCCCCCCCCCOc1cc(C(=O)O)cc(N(CC(=O)O)CC(=O)O)c1 [Example 70, N-[3-Carboxy-5-(octadecyloxy)phenyl]-N-(carboxymethyl)glycine] | 45 |  | 1000 | 0 | 0.30 ± 0.09 | 
CCCCCCCCCCCCCCCCCCOc1cc(OCCCP(=O)(OCC)OCC)cc(N(CC(=O)O)CC(=O)O)c1 [Example 88, N-(Carboxymethyl)-N-[3-[3-(diethoxyphosphinyl)propoxy]-5-(octadecyloxy)phenyl]glycine] | 46 |  | 400 | 43 |  | Change in Paw Volume (mL) Treated ([2]; 30 mg/kg ip): -0.90 ± 0.11 mL; inhibition in vivo at 30 mg/kg [5]: 57%
CCCCCCCCCCCCCCCCCCOc1cc(OCCCP(=O)(O)OCC)cc(N(CC(=O)O)CC(=O)O)c1 [Example 89] | 45 |  |  |  |  | inhibition at 1 µM (HSF-PLA2): 31%; Change in Paw Volume (mL) Treated ([2]; 30 mg/kg ip): -0.68 ± 0.08 mL
CCCCCCCCCCCCCCCCCCOc1cc(OCCOCCOCCOCC)cc(N(CC(=O)O)CC(=O)O)c1 [Example 151] | 43 |  |  | 54 | 0.28 ± 0.16 | inhibition at 1 µM (HSF-PLA2): 100%
COc1ccc2c(c1)c(CC(=O)O)c(C)n2C(=O)c1ccc(Cl)cc1 [Indomethacin] |  |  |  |  |  | TPA-mediated increase in epidermal PGE2 levels (mouse skin): prevented; TPA-mediated induction of epidermal cell ornithine decarboxylase (mouse skin): prevented
